Reference: patent publication US12492210B2, “Tricyclic compounds and their use” (HUTCHISON MEDIPHARMA LIMITED, priority 2019, dated 2025)

Legend:
MAPK1(ERK2) enzyme = target: T1, MAPK1(ERK2) enzyme (Homo sapiens, UniProt P28482); assay: Z-Lyte Kinase Assay of ERK2; type: biochemical; settings: read-out: Example 18 IC50
T1 construct: purchased Invitrogen PV3313
In short: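 FRET-based Z-LYTE assay using ERK2 kinase with Ser/Thr3 peptide; compound tested at 0.00046–1 μM final in 2% DMSO. Kinase reaction ran 1 h at 25-30° C, followed by 1 h development. The coumarin/fluorescein emission ratio (445/520 nm) gave % phosphorylation, and IC50 was fitted from inhibition relative to uninhibited control.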

[1] = system: p-RSK (Thr359) in colo205 cells; assay: p-RSK (Thr359) Acumen Assay in Colo205; type: cell-based; settings: Homo sapiens, COLO 205, 1 hour compound incubation, read-out: Example 19 IC50
In short: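 Colo205 cells (4000/well, seeded overnight in 10% FBS) were exposed 1 hour at 37° C to compound added from a 3–0.001 μM dilution series in 5% DMSO. Cells were then fixed, permeabilised and immunostained for p-RSK Thr359, with PI counterstain. Acumen cytometry gave the percentage of positive cells, normalised to untreated wells and 3 uM GDC0994 wells, for the IC50 fit.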

T1 sequence (P28482 whole entry): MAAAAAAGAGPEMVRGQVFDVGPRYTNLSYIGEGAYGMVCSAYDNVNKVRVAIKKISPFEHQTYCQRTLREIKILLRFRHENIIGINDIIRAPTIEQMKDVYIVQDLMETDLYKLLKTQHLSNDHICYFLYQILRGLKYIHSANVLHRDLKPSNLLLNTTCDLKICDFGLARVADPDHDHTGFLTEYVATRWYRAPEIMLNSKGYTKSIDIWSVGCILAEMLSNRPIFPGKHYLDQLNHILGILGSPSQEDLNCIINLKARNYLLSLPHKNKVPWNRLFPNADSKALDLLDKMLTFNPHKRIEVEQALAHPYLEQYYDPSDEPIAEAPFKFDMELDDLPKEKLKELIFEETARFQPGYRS

`Cn1nccc1Nc1cc(-c2cc3n(c2)CC(CO)Cn2c-3nnc2C2(C(F)(F)F)CCC2)c(Cl)cn1` (stereo not drawn) [Compound 299, (10-(5-chloro-2-((1-methyl-1H-pyrazol-5-yl)amino)pyridin-4-yl)-3-(1-(trifluoromethyl)cyclobutyl)-6,7-dihydro-5H-pyrrolo[1,2-a][1,2,4]triazolo[3,4-c][1,4]diazepin-6-yl)methanol] was tested, and the IC50 (MAPK1(ERK2) enzyme) was ≤ 5 nM and the IC50 [1] was ≤ 100 nM.

With `Cn1nccc1Nc1cc(-c2cc3n(c2)CCCn2c(Cc4c(F)cccc4Cl)nnc2-3)c(Cl)cn1` [Compound 33] the IC50 (MAPK1(ERK2) enzyme) was > 10 nM and the IC50 [1] was ≤ 100 nM.

With `CO[C@@H]1Cn2cc(-c3cc(Nc4ccnn4C)ncc3Cl)cc2-c2nnc(C3(C(F)(F)F)CCC3)n2C1` [Compound 302] the IC50 (MAPK1(ERK2) enzyme) was ≤ 5 nM and the IC50 [1] was ≤ 100 nM.

For `Cn1nccc1Nc1cc(-c2cc3n(c2)C[C@H](CF)n2c-3nnc2C(F)(F)c2ncco2)c(Cl)cn1` [Compound 110], the IC50 (MAPK1(ERK2) enzyme) was ≤ 5 nM and the IC50 [1] was > 100 nM.

With `COC1(c2nnc3n2[C@@H](CF)Cn2cc(-c4cc(Nc5ccnn5C)ncc4Cl)cc2-3)CCC1` [Compound 64] the IC50 (MAPK1(ERK2) enzyme) was ≤ 5 nM and the IC50 [1] was > 100 nM.

For `Cn1nccc1Nc1cc(-c2cc3n(c2)C[C@H](CF)n2c-3nnc2C2(C(F)(F)F)CCC2)c(Cl)cn1` [Compound 121], the IC50 (MAPK1(ERK2) enzyme) was ≤ 5 nM and the IC50 [1] was ≤ 100 nM.

For `Cn1nccc1Nc1nccc(-c2cc3c4nnc(Cc5cccc(F)c5)n4ccn3c2)n1` [Compound 282], the IC50 (MAPK1(ERK2) enzyme) was ≤ 5 nM and the IC50 [1] was > 100 nM.

In the case of `Cc1cc(Nc2ncc(C)c(-c3cc4n(c3)CCCn3c-4nnc3C3(C(F)(F)F)CCC3)n2)ccn1` [Compound 281, 5-methyl-N-(2-methylpyridin-4-yl)-4-(3-(1-(trifluoromethyl)cyclobutyl)-6,7-dihydro-5H-pyrrolo[1,2-a][1,2,4]triazolo[3,4-c][1,4]diazepin-10-yl)pyrimidin-2-amine], the IC50 (MAPK1(ERK2) enzyme) is reported as ≤ 5 nM and the IC50 [1] is reported as ≤ 100 nM.

With `Cn1nccc1Nc1nccc(-c2cc3n(c2)C[C@H](CF)n2c-3nnc2C(F)(F)c2ccccc2Cl)n1` [Compound 142] the IC50 (MAPK1(ERK2) enzyme) was 5 to 10 nM and the IC50 [1] was ≤ 100 nM.

For `Cn1nccc1Nc1cc(-c2cc3n(c2)CCCn2c-3nnc2C2(C#N)CCC2)c(Cl)cn1` [Compound 4], the IC50 (MAPK1(ERK2) enzyme) was ≤ 5 nM and the IC50 [1] was > 100 nM.

For `C[C@H]1Cn2cc(-c3cc(Nc4ccnn4C)ncc3Cl)cc2-c2nnc(C3(C(F)(F)F)CCC3)n21` [Compound 256], the IC50 (MAPK1(ERK2) enzyme) was ≤ 5 nM and the IC50 [1] was ≤ 100 nM.

In the case of `Cn1nccc1Nc1ncc(Cl)c(-c2cc3n(c2)CCCn2c(COC4(C(F)(F)F)CCC4)nnc2-3)n1` [Compound 213], the IC50 (MAPK1(ERK2) enzyme) is reported as ≤ 5 nM and the IC50 [1] is reported as ≤ 100 nM.

In the case of `C[C@H]1Cn2cc(-c3cc(Nc4ccnn4C)ncc3Cl)cc2-c2nnc(C(F)(F)c3ccccc3F)n21` [Compound 135], the IC50 (MAPK1(ERK2) enzyme) is reported as 5 to 10 nM and the IC50 [1] is reported as ≤ 100 nM.

In the case of `Cn1nccc1Nc1cc(-c2cc3n(c2)C[C@H](CF)n2c-3nnc2C(F)(F)C(F)F)c(Cl)cn1` [Compound 79], the IC50 (MAPK1(ERK2) enzyme) is reported as ≤ 5 nM and the IC50 [1] is reported as ≤ 100 nM.

In the case of `Cc1cnc(Nc2ccnn2C)nc1-c1cc2n(c1)C[C@H](C)n1c-2nnc1C(F)(F)c1c(F)cccc1F` [Compound 130], the IC50 (MAPK1(ERK2) enzyme) is reported as 5 to 10 nM and the IC50 [1] is reported as > 100 nM.

With `Cn1nccc1Nc1cc(-c2cc3n(c2)CCn2c-3nnc2C(F)(F)C(F)F)c(Cl)cn1` [Compound 58] the IC50 (MAPK1(ERK2) enzyme) was ≤ 5 nM and the IC50 [1] was ≤ 100 nM.

In the case of `Cc1cnc(Nc2ccnn2C(F)F)cc1-c1cc2n(c1)CCCn1c-2nnc1C1(C(F)(F)F)CCC1` [Compound 263], the IC50 (MAPK1(ERK2) enzyme) is reported as ≤ 5 nM and the IC50 [1] is reported as ≤ 100 nM.

`C[C@H]1CCn2cc(-c3cc(Nc4ccnn4C)ncc3Cl)cc2-c2nnc(C3(CC(F)(F)F)CCC3)n21` [Compound 160] was tested, and the IC50 (MAPK1(ERK2) enzyme) was ≤ 5 nM and the IC50 [1] was ≤ 100 nM.

With `Cn1nccc1Nc1cc(-c2cc3n(c2)CCCn2c-3nnc2C2(C(F)(F)F)CCC2)c(C(F)(F)F)cn1` [Compound 271] the IC50 (MAPK1(ERK2) enzyme) was 5 to 10 nM and the IC50 [1] was ≤ 100 nM.

`Cn1nccc1Nc1cc(-c2cc3n(c2)C[C@H](Cc2ccccc2)n2c(CCC(F)(F)F)nnc2-3)c(Cl)cn1` [Compound 203] was tested, and the IC50 (MAPK1(ERK2) enzyme) was 5 to 10 nM and the IC50 [1] was ≤ 100 nM.

`Cn1nccc1Nc1cc(-c2cc3n(c2)C[C@H](CF)n2c-3nnc2C(F)(F)n2cc(F)cn2)c(Cl)cn1` [Compound 163] was tested, and the IC50 (MAPK1(ERK2) enzyme) was ≤ 5 nM and the IC50 [1] was ≤ 100 nM.
